Measured values taken from US20190290620A1, “APPLICATIONS OF NOVEL THIAZOLE DERIVATIVE IN TREATING INFLAMMATORY BOWEL DISEASES” (EAST CHINA UNIVERSITY OF SCIENCE AND TECHNOLOGY, priority 2016, published 2019).
Marks after values point to notes of the source that are not given here.

Tested on: TNBS-induced ulcerative colitis model mice
Assay: TNBS-induced mice ulcerative colitis model
Format: in vivo, BALB/c male mice
Design: key to Scores of gross morphological damages: 0 = no adhesion/ulcer/inflammation, 4+ = severe ulcers (+1 per cm)
Settings: compound 20 mg/kg; for Histopathology scores: H&E colon sections, epithelial cells and inflammatory cell infiltration points; for Histopathology scores / Scores of gross morphological damages / Length of the colon / Weight of the colon / weight/length ratio (average) of colon / Score (body weight index according to the disease activity index, DAI): ig 7 days, sulfasalazine 500 mg/kg; for Scores of gross morphological damages: colon adhesion, ulceration, inflammation points; for Length of the colon / Weight of the colon: 24 hours after last administration; for weight/length ratio (average) of colon: colon weight (g) / length (cm); for Score (body weight index according to the disease activity index, DAI): 0-4 points by weight decrease; for Ratio of weight loss: ig daily for 7 days from day of modeling, positive drug sulfasalazine 500 mg/kg, 10 mice per group
Description: BALB/c male mice (each 18-22 g) of SPF level were purchased from Shanghai Slack Laboratory Animal Co., Ltd. and were used in experiments after adaptive feeding for 7 days.
BALB/c male mice were kept in an animal cage (daylight and darkness of 12 hours, respectively) at a temperature of 20-25° C. and relative humidity of 50-60%, free access to food and water.
Mice were randomly divided into normal control group, trinitrobenzenesulfonic acid (TNBS) model group, drug treatment group and positive drug control group (sulfasalazine 500 mg/kg).
All of the mice in model group and administration group were shaved in the abdomen (area 2×2 cm) and sensitized with 1% TNBS (dissolved in 50% ethanol). On the 7th day, the mice were fasted, but not water. After 24 hours, the mice were anesthetized through intraperitoneal injection of 0.1 ml of 10% chloral hydrate and 2% TNBS was used for lavation to establish a mouse model of ulcerative colitis. A gavage needle for rat was inserted into the colon of a mouse, the tip of the needle was about 3˜3.5 cm away from the anus, and 0.1 ml of modeling solution (5% TNBS and deionized water were mixed at a volume ratio of 4:1, and the obtained solution was mixed with absolute ethanol at a volume ratio of 1:1, so as to obtain the modeling solution) was injected. The mice were put back into the cage and wake up naturally. The mice in the normal control group were injected with 0.12 ml of solvent (50% ethanol solution) by the same manner.
Administration was started on the day of modeling (using 0.5% sodium carboxymethylcellulose, CMC-Na) for 7 consecutive days.
At 24 hours after the last administration, the mice were sacrificed by cervical dislocation, the peritoneum was cut open, and the whole colon was taken. The intestine was cut longitudinally along the mesenteric margin, rinsed with ice physiological saline, placed on ice, and the pathological changes of the colon were observed. The fat and mesentery were removed, the water was blotted with filter paper, the weight of the colon was weighed and the length was measured. The colon was fixed in 4% formaldehyde for more than 24 hours, dehydrated, paraffin-embedded and H&E stained, and the pathological sections were observed.
The mice were observed and recorded daily for mental state, fur color, and activities. The mice was weighed daily and observed for the stool traits. The body weight index according to the disease activity index (DAI) is as follows:
After the colon of a mouse was removed, the weight of the colon was measured with a precision electronic balance, the length was measured with a vernier caliper, and the weight/length ratio of the colon was calculated.
The criteria for scores were: no adhesion, no ulcer, no inflammation, 0 points; mild adhesion, local congestion, no ulcer, 1 point; severe adhesion, 1 ulcer (area less than 1 cm), no obvious inflammation, 2 points; more than 1 ulcers (area less than 1 cm) with inflammation, 3 points; 2 severe ulcers (area greater than 1 cm) with inflammation, 4 points; and 1 point for each 1 cm increase in ulcer area.
Pathological changes of colon tissue were observed under light microscope, and the scores were recorded. The criteria for scores are as follows:
1) Epithelial cells: normal morphology, 0 points; loss of goblet cells, 1 point; large loss of goblet cells, 2 points; loss of crypt cells, 3 points; large loss of crypt cells, 4 points.
2) Infiltration of inflammatory cells: no infiltration, 0 points; infiltration in the basal layer of the crypt, 1 point; infiltration to the muscular layer of the mucosa, 2 points; infiltration to the muscular layer of the mucosa with mucosal thickening and obvious edema, 3 points; infiltration to the submucosal layer, 4 points.
Data were expressed as […] (mean±S.E.M.), data were analyzed using SPSS statistical software, and one-way ANOVA and Tukey's HSD post hoc test were used for comparison between groups. p<0.05 was considered statistically significant.

Compound | Histopathology scores | Scores of gross morphological damages | Length of the colon | Weight of the colon | weight/length ratio (average) of colon | Score (body weight index according to the disease activity index, DAI) | Ratio of weight loss
CN(/N=C/c1ccccc1C(=O)O)c1nc(-c2ccccc2)cs1 [Compound 20, (E)-4-phenyl-2-[1-methyl-2-(2-carboxybenzylidene)hydrazino]thiazole] | 3.65 ± 0.42 | 3.33 ± 0.59 |  |  |  |  | 
Cc1sc(N/N=C/c2ccccc2C(=O)O)nc1-c1ccccc1 [Compound 17, (E)-5-methyl-4-phenyl-2-(2-carboxylbenzylidenehydrazino)thiazole] |  |  | 5.124 ± 0.332 cm | 0.159 ± 0.034 g | 0.030# |  | 
Cc1sc(N(C)/N=C/c2ccccc2C(=O)O)nc1-c1ccccc1 [Compound 12, (E)-5-methyl-4-phenyl-2-[11-methyl-2-(2-carboxybenzylidene)hydrazino]thiazole] |  |  | 5.075 ± 0.468 cm | 0.154 ± 0.012 g | 0.030# | 1 | 2.33 ± 2.99
CN(/N=C/c1ccccc1C(=O)O)c1nc(-c2ccccc2Cl)cs1 [Compound 1, (E)-4-(2-chlorophenyl)-2-[1-methyl-2-(2-carboxybenzylidene)hydrazino]thiazole] | 2.54 ± 0.62 | 2.32 ± 0.69 | 5.575 ± 0.452 cm | 0.162 ± 0.027 g | 0.029# | 1 | 2.61 ± 4.53
O=C(O)c1cc(C(F)(F)F)ccc1/C=N/Nc1nc(-c2ccccc2Cl)cs1 [Compound 8-1] |  |  |  |  |  | 1 | 3.72 ± 1.60
